Source: US10092648B2, “Selective glucagon-like-peptide-2 (GLP-2) analogues” (Zealand Pharma A/S, priority 2006, dated 2018)
Read-outs that look alike come from different tables or passages of the source.

Tests used:
[1] = system: male C57BL mice; test: In vivo stimulation of intestinal growth, 200 nmol/kg (Example 11); conditions: for Colon-BW, compared to 1559 in %: colon weight relative to body weight; for Colon-BW, compared to 1559 in % / SI-BW, compared to 1559 in %: relative to ZP1559; for Sensitivity index Si/Co: ratio SI-BW / Colon-BW; for SI-BW, compared to 1559 in %: small intestine weight relative to body weight
Summary of the method: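 Mice (n=6-10 per group) dosed s.c. at 200 nmol/kg once daily for three days; controls received equimolar [[MUT]]GLP-2 or PBS pH 7.4 vehicle.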

[2] = system: male C57BL mice; test: In vivo stimulation of stomach growth, 200 nmol/kg (Example 12); conditions: for Sensitivity index Stomach/Co: ratio Stomach-BW / Colon-BW; for Stomach-BW, compared to 1559 in %: stomach weight relative to body weight, relative to ZP1559
Summary of the method: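 Mice (n=6-10/group) received 200 nmol/kg s.c. once daily for 3 days, with PBS pH 7.4 vehicle and an equimolar GLP-2 comparator. Stomach/colon sensitivity index relative to GLP-2 was calculated, with ≥1.05 deemed stomach-selective.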

[3] = system: male C57BL mice; test: In vivo stimulation of intestinal growth, 800 nmol/kg (Example 10); design: key to Small intestine-colon sensitivity index: (SI/Colon) of compound divided by (SI/Colon) of reference GLP-2; conditions: 800 nmol/kg s.c. once daily for 3 days; for Small intestine-colon sensitivity index: (SI/Colon)x/(SI/Colon)[Gly2]GLP-2; for Sensitivity index Si/Colon / Sensitivity index Stomach/Co: relative to 1559; for Colon: colon mass relative to BW, % vs. [Gly2]GLP-2; for SI (% vs. [Gly2]GLP-2: small intestine mass relative to BW, [Gly2]GLP-2 = 100%
Description: Individual groups (n=6-10) of mice were given 800 nmol/kg of each compound, s.c, once daily for three consecutive days. For comparison purposes other groups of animals were given either an equimolar dose of [[…]]GLP-2 (ZP1559) or vehicle (phosphate buffered saline, pH 7.4) in the same dosing regimen Twenty-four hours after the last dose of compound had been given the mice were sacrificed and the small intestine (from the pylorus to the cecum) and the colon (intestine distal to cecum) was emptied and weighed. To correct for slight difference in body weight (BW), the organ mass of the small intestine (SI) and colon were expressed relative to BW. The non-selective reference compound [[…]]GLP-2 has been reported to stimulate gastrointestinal growth in both esophagus, stomach, small intestine and colon and to evaluate differences in growth pattern induced by compounds, the small intestine-colon sensitivity index of compound X was calculated as: […]

[4] = target: T1, hGLP-2 receptor (Homo sapiens, UniProt O95838); test: In vitro screening for agonism on the GLP-2 receptor recombinantly expressed in BHK-21 cells (CRE-luciferase reporter); type: cell-based
T1 construct: expressed in transfected cells; host or cells: BHK-21 (C13) cells, transient transfection with Lipofectamine 2000
T1 sequence (O95838 1-553): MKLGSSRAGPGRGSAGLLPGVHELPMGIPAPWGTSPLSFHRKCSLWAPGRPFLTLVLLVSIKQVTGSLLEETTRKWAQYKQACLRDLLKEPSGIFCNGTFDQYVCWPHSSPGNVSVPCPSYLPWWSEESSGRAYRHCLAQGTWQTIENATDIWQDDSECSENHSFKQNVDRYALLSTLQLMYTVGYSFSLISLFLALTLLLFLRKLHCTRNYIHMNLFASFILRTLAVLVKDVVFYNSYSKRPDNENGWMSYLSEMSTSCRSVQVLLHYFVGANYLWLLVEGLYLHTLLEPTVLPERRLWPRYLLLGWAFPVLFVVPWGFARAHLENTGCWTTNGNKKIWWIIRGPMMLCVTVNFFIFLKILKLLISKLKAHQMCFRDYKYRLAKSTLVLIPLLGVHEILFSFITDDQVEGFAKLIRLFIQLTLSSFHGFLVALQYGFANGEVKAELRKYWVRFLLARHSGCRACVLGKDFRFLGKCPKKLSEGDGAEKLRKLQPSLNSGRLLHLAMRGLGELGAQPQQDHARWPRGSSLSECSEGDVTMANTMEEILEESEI
Description: The screening was done using BHK21 cells transiently transfected with GLP-2 receptor and the CRE-luciferase reporter gene construct. Dose-response curves and EC50 values were determined using seven concentrations from 10 fM to 10 nM and triplicate points for each concentration. Control peptide was used on all test plates. BHK-21 cells are seeded in 10 cm TC-Petri dishes and grown to 70-80% confluency. Subsequently, medium is changed to serum-free transfection medium. DNA (7.5 μg hGLP-2 receptor vector and 7.5 μg CRE-luciferase vector) and Lipofectamine 2000 are diluted in OptiMEM, combined, and added to the cells after 20-30 min. Cells are incubated in the incubator at 37° C., 5% CO2 for 4 hr, trypsinized, and reseeded at 35,000 cells per well in 96-well plates. Cells are incubated overnight in full growth medium in order to allow expression of the transgenes. […] Baseline activity is controled with stimulation buffer alone. These solutions are pre-warmed to 37° C. for 30 min. Cells are rinsed with pre-warmed (37° C.) stimulation buffer, and incubated with 100 μl of the pre-warmed peptide dilutions and control for 5 hr at 37° C., 5% CO2. The LucLite enzyme substrate/lysis buffer is prepared shortly before the end of the incubation. 100 μl LucLite substrate are added to each well, and light emission is counted on a suitable counter (e.g. Wallac VictorII). EC50 values are derived from the raw data by fitting with a four parameter logistic equation (Microcal Origin 5.0 or GraphPad 4).

[5] = DPP IV degradation and renal clearance; Tavares et al. 2000; cited from earlier work
[6] = BHK21 cells transiently transfected with GLP-2 receptor and CRE-luciferase, 10 fM to 10 nM, read-out: pEC50 (converted)

Substance | Colon-BW, compared to 1559 in % [1] [%] | Sensitivity index Si/Co [1] | SI-BW, compared to 1559 in % [1] [%] | Sensitivity index Stomach/Co [2] | Stomach-BW, compared to 1559 in % [2] [%] | Colon-BW, compared to 1559 in % [3] [%] | Preferential stimulation of epithelial growth in the small intestine (summary) [3] | SI-BW, compared to 1559 in % [3] [%] | Sto-BW, compared to 1559 in % [3] [%] | Small intestine-colon sensitivity index [3] | Sensitivity index Si/Colon [3] | Sensitivity index Stomach/Co [3] | Colon [3] [%] | SI (% vs. [Gly2]GLP-2 [3] [%] | EC50 [4] [pM] | EC50 [4, 6] [pM] | EC50 ([4]; agonism on GLP-2 receptor in BHK-21 cells, read-out: IC 50 (FIG. 5)) [pM] | half life [5] | Organ selectivity (FIG. 8, unselective compounds) [3]
H-HGEGSFSDELATILEALAASDFISWLISTKITD-NH2 [ZP2268] | 112.5 | 1.10 | 123.6 | 0.78 | 87.4 | 112.5 | preferentially stimulating epithelial growth in the small intestine | 123.6 | 87.4 | 1.10 ± 0.03 | 1.10 | 0.78 | 112 ± 4 | 124 ± 3 | 6.17 | – | – | – | –
H-HGEGSFSDELATILEALAAADFIAWLIATKITD-NH2 [ZP2264] | 109.5 | 1.15 | 125.7 | 0.79 | 87 | 109.5 | preferentially stimulating epithelial growth in the small intestine | 125.7 | 87 | 1.15 ± 0.03 | 1.15 | 0.79 | 109 ± 3 | 126 ± 3 | – | 3.16 | 3.55 | – | –
H-HGEGSFSDELATILESLAAADFISWLIATKITD-NH2 [ZP2272] | 104.7 | 1.13 | 118.1 | 0.92 | 96 | 104.7 | preferentially stimulating epithelial growth in the small intestine | 118.1 | 96 | – | 1.13 | 0.92 | 105 ± 6 | 118 ± 2 | – | 5.37 | – | – | –
H-His-Ala-Asp-Gly-Ser-Phe-Ser-Asp-Glu-Met-Asn-Thr-Ile-Leu-Asp-Asn-Leu-Ala-Ala-Arg-Asp-Phe-Ile-Asn-Trp-Leu-Ile-Gln-Thr-Lys-Ile-Thr-Asp-OH [GLP-2(1-33)] | – | – | – | – | – | – | – | – | – | – | – | – | – | – | – | – | – | about 7 minutes | –
H-HGEGSFSDELKTILESLAAADFIEWLIQTKITD-NH2 [ZP2269] | – | – | – | – | – | 94.7 | – | 97.4 | 99.8 | – | 1.03 | 1.05 | 95 ± 3 | 97 ± 2 | – | 91.2 | – | – | unselective for the small intestine, colon or stomach
